# Reference: patent publication US20240016819A1, “CANNABINOIDS FOR USE IN THE TREATMENT OF EPILEPSY” (GW RESEARCH LIMITED, priority 2020, published 2024)
# Test system: seizures in patients with TSC
# Assay: Mean total seizures over time in TSC patients after administration of CBD (FIG. 2)
# Type: in vivo, human
# Settings: starting dose 5 mg/kg/day, 2 week titration period
# Description: Patients with TSC were administered a highly purified extract of cannabidiol (CBD) obtained from a cannabis plant described herein. Similar to Example 1, patients with a TSC diagnosis were administered a starting dose of 5 mg/kg/day CBD in addition to their baseline anti-epileptic drug (AED) regimen or placebo.
# The daily dose was increased by 5 mg/kg increments until intolerance occurred or a maximum dose of 25 mg/kg/day was achieved. The starting dose increase from 5 mg/kg/day to 10 mg/kg/day occurred 7 days after administration of the first dose of CBD. […] The titration period occurred over two weeks. For patients in need of further seizure reduction, the dosage of 20 mg/kg/day was increased up to 25 mg/kg/day after one week.
# All patients were taking at least two concomitant anti-epileptic drugs. These included clobazam; levetiracetam; topiramate; stiripentol; phenobarbital; lacsamide; valproic acid; zonisamide. The average number of concomitant antiepileptic drugs being taken was 2.7. The majority took either clobazam and/or valproic acid.
# Prior to treatment with CBD, patients recorded the number of seizures they experienced. This established the baseline levels. During the course of treatment, patients recorded the number of seizures experienced each day.
smiles,measurement,value
"C=C(C)[C@@H]1CCC(C)=C[C@H]1c1c(O)cc(CCCCC)cc1O [CBD Extract, Cannabidiol]",mean total seizures over time,starts decreasing during the titration period
